Source: article PMC3009740 (PLoS ONE, 2010)
Positions count from the first letter of the chain named. Where two headings read alike, the source gives them in different places.

What was measured:
[1] = system: CHO hM1 cells; experiment: Protein content (method of Bradford) of CHO hM1 cells after pretreatment; type: cell-based, Chinese hamster
Description: In order to account for these variances, the method of Bradford was used to quantify changes in protein content in CHO hM1 cells. […] This is in contrast to the complete inhibition of binding observed prior to prolonged waiting.

[2] = target: T1, human M1 muscarinic acetylcholine receptor (Homo sapiens, UniProt P11229); experiment: cell-based
T1 sequence (P11229 1-460): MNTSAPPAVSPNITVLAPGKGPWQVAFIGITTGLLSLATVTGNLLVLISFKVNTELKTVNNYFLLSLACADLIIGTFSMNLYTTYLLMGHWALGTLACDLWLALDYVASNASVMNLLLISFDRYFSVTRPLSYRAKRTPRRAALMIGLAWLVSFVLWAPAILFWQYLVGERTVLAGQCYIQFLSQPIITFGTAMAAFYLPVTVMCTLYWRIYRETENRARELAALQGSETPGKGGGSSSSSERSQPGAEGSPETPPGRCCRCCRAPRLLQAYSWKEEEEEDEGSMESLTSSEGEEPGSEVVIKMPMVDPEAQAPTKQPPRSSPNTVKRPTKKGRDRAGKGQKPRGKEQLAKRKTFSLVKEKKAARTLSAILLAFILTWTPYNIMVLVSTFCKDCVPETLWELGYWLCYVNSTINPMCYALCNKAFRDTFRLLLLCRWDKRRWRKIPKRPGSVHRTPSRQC
Experimental: (§1) Labeled cells were harvested by trypsinization, centrifuged, and washed three times in HEPES buffer to remove unincorporated myo-[^3H]inositol. Labeled cells were distributed to assay tubes (500,000 cells/tube), and allowed to incubate for 15 min at 37°C. […] In all cases, the reaction was allowed to proceed in the presence of 10 mM LiCl for 1 h at 37°C after the addition of agonist before being stopped with chloroform/methanol (2∶1) and centrifuged (450×g; 15 min).
Alternatively, cells were grown in 24-well plates and loaded with myo-[^3H]inositol as described above. […] In all cases, the reaction was stopped with 0.3 M HClO4, neutralized with 0.15 M K2CO3, and samples were centrifuged (1500×g; 15 min).
(§2) For all experiments, [^14C]inositol-1-phosphate was added to each sample as an internal recovery standard. Total inositol phosphates were separated by ion exchange chromatography (AG1-X8 resin). The amount of radioactivity (disintegrations per minute) in each sample was determined by liquid scintillation spectrometry and adjusted for ^14C recovery.
(§3) In functional assays of PI hydrolysis, raw data were corrected for ^14C recovery to account for individual column differences in efficiency. Individual concentration-response curve data were fitted to a four-parameter logistic function using Prism to obtain estimates of EC50 (half-effective concentration) and Emax.

[3] = target: T2, rat M1 mutant^123 muscarinic acetylcholine receptor (Rattus norvegicus, UniProt P08482)
T2 sequence (P08482 1-460): T1 sequence (P11229 1-460) with A5V, T254S, P309S, R320K, A337G, I413V

[4] = target: T2, rat M1 mutant^123 muscarinic acetylcholine receptor; details: mutant^123 cells stimulated with agonist (data not shown)
Experimental: as §1, §2, §3

[5] = target: T3, rat M1 wild-type muscarinic acetylcholine receptor (Rattus norvegicus, UniProt P08482); details: naïve CHO rM1 cells
T3 sequence (P08482 1-460): T1 sequence (P11229 1-460) with A5V, T254S, P309S, R320K, A337G, I413V
Experimental: as §1, §2, §3

[6] = target: T2, rat M1 mutant^123 muscarinic acetylcholine receptor; details: washout, control 2700±300
[7] = target: T3, rat M1 wild-type muscarinic acetylcholine receptor
[8] = target: T3, rat M1 wild-type muscarinic acetylcholine receptor; details: washout, control 2200±90
[9] = 1 h pretreatment, washout, 23 h wait

In the case of C[N+](C)(C)CCOC(N)=O [carbachol], the “maximal decrease in protein content” value ([1]; 24-h pretreatment, at 10 mM carbachol) is reported as 26±6.6%.

O=C1CCCN1CC#CCN1CCCC1 [oxotremorine] was tested, and the “Emax, maximal accumulation of inositol phosphates” value [2] was 10000±800 dpm, the “increase in the EC50 of agonist-stimulated PI hydrolysis” value [2] was 32 fold and the EC50 ([2]; pEC50 of PI hydrolysis) was 200 nM.

In the case of CCCCCCOc1nsnc1C1=CCCN(C)C1 [xanomeline, 3-[3-hexyloxy-1,2,5-thiadiazo-4-yl]-1,2,5,6-tetrahydro-1-methylpyridine], the “maximal decrease in protein content” value ([1]; 1-h pretreatment followed by washing and prolonged waiting, at 10 µM xanomeline) is reported as 32±2%, the “maximal decrease in protein content” value ([1]; 24-h pretreatment, at 10 µM xanomeline) is reported as 65±7% and the “Imax, maximal percentage inhibition of [3H]NMS binding” value (shortened to “Imax, maximal percentage inhibition”) ([3]; 1 h pretreatment, washout) is reported as 96±0.7%. For the same compound, the “Imax, maximal percentage inhibition” value [3, 9] was 60±7.4 %, the “Imax, maximal percentage inhibition” value ([3]; 24 h pretreatment, washout) was 90±2.9% and the “Imax, maximal percentage inhibition” value ([3]; Control: naïve cells) was 99±0.5%. For the same compound, the PI response [4] was “did not produce a significant PI response”, the “Emax, maximal response” value [5] was 18000±5500 dpm and the “Bmax, maximal cell-surface receptor density” value ([6]; 3 µM xanomeline 1 h, 23 h wait) was 3400±610 dpm/100,000 cells. The “Bmax, maximal cell-surface receptor density” value ([6]; 3 µM xanomeline 1 h) was 3000±380 dpm/100,000 cells, the “Bmax, maximal cell-surface receptor density” value ([6]; 3 µM xanomeline 24 h) was 3600±320 dpm/100,000 cells and the “Imax, maximal percentage inhibition” value ([7]; 1 h pretreatment, washout) was 95±0.5%. The “Imax, maximal percentage inhibition” value [7, 9] was 99±2.3%, the “percentage of high-affinity binding sites” value [7, 9] was 74±1.1% and the “Imax, maximal percentage inhibition” value ([7]; 24 h pretreatment, washout) was 97±0.5%. The “percentage of high-affinity binding sites” value ([7]; 24 h pretreatment, washout) was 47±7.7%, the “Imax, maximal percentage inhibition” value ([7]; Control: naïve cells) was 99±0.6% and the “Bmax, maximal cell-surface receptor density” value ([8]; 3 µM xanomeline 1 h, 23 h wait) was 1100±150 dpm/100,000 cells. For the same compound, the “Bmax, maximal cell-surface receptor density” value ([8]; 3 µM xanomeline 1 h) was 2600±430 dpm/100,000 cells and the “Bmax, maximal cell-surface receptor density” value ([8]; 3 µM xanomeline 24 h) was 1300±150 dpm/100,000 cells.
